Structures can show the parent of a compound that is named as a salt. Where two headings read alike, the source gives them in different places.
Biological target: T1, Human IP6K1 (Homo sapiens, UniProt Q92551)
T1 construct: GST (N, cleaved yes); made in house; host or cells: C43 E. coli, pGEX-6P-2
Assay: IP6K1 high-throughput screen of the Sigma LOPAC (ADP-Glo Max, single point);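 also: final compound concentration 10µM in 5% DMSO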
Assay type: biochemical

[1] = LOPAC single-point screen, ADP-Glo Max luminescence raw signal per well
[2] = LOPAC single-point screen, Z-score from plate average and StDev
[3] = LOPAC single-point screen, Z-score relative to plate average and StDev
[4] = LOPAC single-point screen, ADP-Glo Max raw signal per well
[5] = LOPAC single-point screen, Z-score from raw signal with plate average and StDev
[6] = LOPAC single-point screen, Z-score against plate average and StDev
[7] = Sigma LOPAC single-point screen, ADP-Glo Max raw signal per well
[8] = Sigma LOPAC single-point screen, Z-score from plate average and StDev

T1 sequence (Q92551 whole entry): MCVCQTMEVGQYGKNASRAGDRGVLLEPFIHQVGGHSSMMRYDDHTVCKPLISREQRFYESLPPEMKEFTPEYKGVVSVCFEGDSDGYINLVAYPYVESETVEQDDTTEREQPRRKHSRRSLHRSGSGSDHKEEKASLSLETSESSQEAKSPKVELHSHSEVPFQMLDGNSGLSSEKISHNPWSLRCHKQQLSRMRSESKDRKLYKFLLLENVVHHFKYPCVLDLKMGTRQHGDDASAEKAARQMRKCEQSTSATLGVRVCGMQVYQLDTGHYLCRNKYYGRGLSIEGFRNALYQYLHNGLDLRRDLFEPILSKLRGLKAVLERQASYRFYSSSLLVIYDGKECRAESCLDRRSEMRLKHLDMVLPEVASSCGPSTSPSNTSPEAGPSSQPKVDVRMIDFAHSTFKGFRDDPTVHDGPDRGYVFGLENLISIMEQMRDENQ

For `CNC(=O)[C@H]1O[C@@H](n2cnc3c(N)ncnc32)[C@H](O)[C@@H]1O` [5 -N-Methyl carboxamidoadenosine], the “Raw Signal” value [1] was 66682 and the Z-score [2] was 1.544.
For `CC1(C)CCC=[N+]1[O-]` [5,5-Dimethyl-1-pyrroline-N-oxide], the “Raw Signal” value [1] was 51954 and the Z-score [3] was -0.6525.
With `O=C1NC(=O)C(c2ccccc2)(c2ccccc2)N1` [5,5-Diphenylhydantoin] the “Raw Signal” value [4] was 54091 and the Z-score [5] was -0.2185.
`O=C(O)c1cc(=O)c2c(Cl)cc(Cl)cc2[nH]1` [5,7-Dichlorokynurenic acid] was tested, and the “Raw Signal” value [1] was 49912 and the Z-score [3] was -1.067.
`CN(C)c1nc(N)c(C(=O)NC(=N)N)nc1Cl` [5-(N,N-Dimethyl)amiloride hydrochloride] was tested, and the “Raw Signal” value [4] was 56769 and the Z-score [5] was -0.2015.
With `N=C(N)NC(=O)c1nc(Cl)c(N2CCCCCC2)nc1N` [5-(N,N-hexamethylene)amiloride] the “Raw Signal” value [4] was 56870 and the Z-score [5] was -0.1837.
`CCN(c1nc(N)c(C(=O)NC(=N)N)nc1Cl)C(C)C` [5-(N-Ethyl-N-isopropyl)amiloride] was tested, and the “Raw Signal” value [4] was 57414 and the Z-score [6] was -0.08791.
For `CC(C)CN(C)c1nc(N)c(C(=O)N=C(N)N)nc1Cl` [5-(N-Methyl-N-isobutyl)amiloride], the “Raw Signal” value [4] was 57481 and the Z-score [6] was -0.0761.
In the case of `Cl.NCCCCC(=O)O` [5-Aminovaleric acid hydrochloride], the “Raw Signal” value [4] is reported as 58378 and the Z-score [6] is reported as 0.08188.
For `NCCc1c[nH]c2ccc(C(N)=O)cc12.O=C(O)/C=C\C(=O)O` [5-Carboxamidotryptamine maleate], the “Raw Signal” value [1] was 52599 and the Z-score [3] was -0.5215.
With `O=C(O)c1cc2cc(F)ccc2[nH]1` [5-Fluoroindole-2-carboxylic acid] the “Raw Signal” value was 61098 and the Z-score was 0.5609.
For `O=c1[nH]cc(F)c(=O)[nH]1` [5-Fluorouracil], the “Raw Signal” value [1] was 52294 and the Z-score [3] was -0.5835.
With `N[C@@H](Cc1c[nH]c2ccc(O)cc12)C(=O)O` [5-Hydroxy-L-tryptophan] the “Raw Signal” value [7] was 60622 and the Z-score [8] was 1.108.
For `O=C(O)Cc1c[nH]c2ccc(O)cc12` [5-Hydroxyindolacetic acid], the “Raw Signal” value [7] was 56978 and the Z-score [8] was 0.3678.
With `COc1ccc2[nH]cc(CCN(C)C)c2c1.O=C(O)C(=O)O` [5-Methoxy DMT oxalate] the “Raw Signal” value [7] was 59658 and the Z-score [8] was 0.8846.
With `Nc1ncn([C@@H]2O[C@H](CO)[C@@H](O)[C@H]2O)c(=O)n1` [5-azacytidine] the “Raw Signal” value [1] was 54885 and the Z-score [3] was -0.5333.
With `C[C@H]1O[C@@H](n2cc(F)c(=O)[nH]c2=O)[C@H](O)[C@@H]1O` [5-fluoro-5-deoxyuridine] the “Raw Signal” value [4] was 53997 and the Z-score [5] was -0.2376.
In the case of `CCCCCC(O)CCCC(=O)O.[Na]` (stereo not drawn) [5-hydroxydecanoic acid sodium], the “Raw Signal” value [4] is reported as 53435 and the Z-score [5] is reported as -0.3518.
For `C[C@]12CC[C@@H](O)C[C@@H]1CC[C@@H]1[C@@H]2CC[C@]2(C)[C@@H](O)CC[C@@H]12` [5alpha-Androstane-3alpha,17beta-diol], the “Raw Signal” value [1] was 54542 and the Z-score [3] was -0.5937.
In the case of `CC(=O)[C@H]1CC[C@H]2[C@@H]3CC[C@H]4C[C@H](O)CC[C@]4(C)[C@H]3C(=O)C[C@]12C` [5alpha-Pregnan-3alpha-ol-11,20-dione], the “Raw Signal” value [7] is reported as 56964 and the Z-score [8] is reported as 0.4319.
For `CC(=O)[C@H]1CC[C@H]2[C@@H]3CC[C@H]4C[C@H](O)CC[C@]4(C)[C@H]3CC[C@]12C` [5alpha-Pregnan-3alpha-ol-20-one], the “Raw Signal” value [4] was 55941 and the Z-score [6] was -0.01609.
`O=c1[nH]c2ccccc2c2ccccc12` [6(5H)-Phenanthridinone] was tested, and the “Raw Signal” value [4] was 55315 and the Z-score [5] was -0.1377.
For `Br.NC1CCc2cc(O)c(O)cc2C1` (stereo not drawn) [6,7-ADTN hydrobromide], the “Raw Signal” value [4] was 55279 and the Z-score [6] was 0.02274.
In the case of `O=c1[nH]c2cc(Cl)c(Cl)cc2[nH]c1=O` [6,7-Dichloroquinoxaline-2,3-dione], the “Raw Signal” value [4] is reported as 56553 and the Z-score [6] is reported as 0.2815.
`NCCCCCC(=O)O` [6-Aminohexanoic acid] was tested, and the “Raw Signal” value [1] was 70191 and the Z-score [2] was 2.162.
For `COc1cc2c(CCNC(C)=O)c[nH]c2cc1Cl` [6-Chloromelatonin], the “Raw Signal” value [7] was 61765 and the Z-score [8] was 0.6784.
With `Cl.NCC(O)c1cc(O)c(O)cc1F` (stereo not drawn) [6-Fluoronorepinephrine hydrochloride] the “Raw Signal” value [1] was 54023 and the Z-score [3] was -0.6852.
With `COc1cc2c(CCNC(C)=O)c[nH]c2cc1O` [6-Hydroxymelatonin] the “Raw Signal” value [1] was 52038 and the Z-score [3] was -0.6355.
`O=Nc1ccc2oc(=O)ccc2c1` [6-Nitroso-1,2-benzopyrone] was tested, and the “Raw Signal” value [7] was 57563 and the Z-score [8] was 0.5326.
In the case of `CCCCCCCCCCC/C=C\C(C)(C)/C=C\CCCC(=O)O` [7,7-Dimethyl-(5Z,8Z)-eicosadienoic acid], the “Raw Signal” value [4] is reported as 53422 and the Z-score [5] is reported as -0.3544.
`O=C(O)c1cc(O)c2ccc(Cl)cc2n1` [7-Chlorokynurenic acid] was tested, and the “Raw Signal” value [4] was 53866 and the Z-score [5] was -0.2642.
`O=[N+]([O-])c1cccc2cn[nH]c12` [7-Nitroindazole] was tested, and the “Raw Signal” value [4] was 55532 and the Z-score [6] was 0.1913.
For `Cn1c(=O)c2c(nc(C=Cc3cccc(Cl)c3)n2C)n(C)c1=O` [8-(3-Chlorostyryl)caffeine], the “Raw Signal” value [4] was 56359 and the Z-score [6] was 0.2421.
For `Cn1c(=O)c2[nH]c(-c3ccc(S(=O)(=O)O)cc3)nc2n(C)c1=O` [8-(p-Sulfophenyl)theophylline], the “Raw Signal” value [4] was 56907 and the Z-score [5] was -0.1772.
`Nc1nc2c(nc(Br)n2[C@@H]2O[C@@H]3COP(=O)([O-])O[C@H]3[C@H]2O)c(=O)[nH]1.[Na+]` [8-Bromo-cGMP sodium] was tested, and the “Raw Signal” value [4] was 55323 and the Z-score [5] was -0.4562.
In the case of `Cn1c(=O)c2[nH]c(C3CCCC3)nc2n(C)c1=O` [8-Cyclopentyl-1,3-dimethylxanthine], the “Raw Signal” value [7] is reported as 58283 and the Z-score [8] is reported as 0.6328.
For `CCCn1c(=O)c2[nH]c(C3CCCC3)nc2n(CCC)c1=O` [8-Cyclopentyl-1,3-dipropylxanthine], the “Raw Signal” value [4] was 55782 and the Z-score [6] was 0.1249.
For `Nc1ncnc2c1ncn2C1CCCC1` [9-cyclopentyladenine], the “Raw Signal” value [7] was 60166 and the Z-score [8] was 0.3968.
In the case of `CC1=C(/C=C/C(C)=C/C=C/C(C)=C\C(=O)O)C(C)(C)CCC1` [13-cis-retinoic acid], the “Raw Signal” value [4] is reported as 55954 and the Z-score [6] is reported as -0.01356.
In the case of `CC(N)=NCc1cccc(CN)c1.Cl.Cl` [1400W dihydrochloride], the “Raw Signal” value [4] is reported as 55005 and the Z-score [5] is reported as -0.1979.
In the case of `COc1cc(C[C@@H](C)N)c(OC)cc1I.Cl` [( R)-(-)-DOI hydrochloride], the “Raw Signal” value [4] is reported as 54807 and the Z-score [6] is reported as -0.07312.
With `CN1CCc2cc3c(cc2[C@H]1[C@@H]1OC(=O)c2c1ccc1c2OCO1)OCO3` [(+)-Bicuculline] the “Raw Signal” value [1] was 66353 and the Z-score [2] was 1.4865.
For `CC(C)C[C@H]1C(=O)N2CCC[C@H]2[C@]2(O)O[C@](NC(=O)[C@@H]3C=C4c5cccc6[nH]c(Br)c(c56)C[C@H]4N(C)C3)(C(C)C)C(=O)N12.CS(=O)(=O)O` [(+)-Bromocriptine methanesulfonate], the “Raw Signal” value [4] was 59214 and the Z-score [6] was 0.2291.
With `CN(C)CC[C@@H](c1ccc(Br)cc1)c1ccccn1` [(+)-Brompheniramine maleate] the “Raw Signal” value [1] was 67936 and the Z-score [2] was 1.765.
In the case of `CC(C)(C)[C@]1(O)CCN2C[C@H]3c4ccccc4CCc4cccc(c43)[C@@H]2C1` [(+)-Butaclamol hydrochloride], the “Raw Signal” value [1] is reported as 54506 and the Z-score [3] is reported as -0.6001.
In the case of `CN(C)CC[C@@H](c1ccc(Cl)cc1)c1ccccn1` [(+)-Chlorpheniramine maleate], the “Raw Signal” value [4] is reported as 57307 and the Z-score [5] is reported as -0.1068.
For `C=CCN1CC[C@]2(C)c3cc(O)ccc3C[C@H]1[C@H]2C.Cl` [(+)-N-Allylnormetazocine hydrochloride], the “Raw Signal” value [1] was 54138 and the Z-score [3] was -0.6649.
In the case of `CN1CCCC1c1cccnc1.Cc1ccc(C(=O)OC(C(=O)O)C(OC(=O)c2ccc(C)cc2)C(=O)O)cc1` (stereo not drawn) [(+)-Nicotine (+)-di-p-toluoyl tartrate], the “Raw Signal” value is reported as 52925 and the Z-score is reported as -0.2467.
In the case of `CC[C@@H]1C(=O)OC[C@@H]1Cc1cncn1C.Cl` [(+)-Pilocarpine hydrochloride], the “Raw Signal” value [7] is reported as 57845 and the Z-score [8] is reported as 0.5799.
For `N[C@@H](Cn1oc(=O)[nH]c1=O)C(=O)O` [(+)-Quisqualic acid], the “Raw Signal” value [7] was 59992 and the Z-score [8] was 0.7709.
In the case of `C[C@@H]1OC[C@H](C[N+](C)(C)C)O1.[I-]` [(+)-cis-Dioxolane iodide], the “Raw Signal” value [4] is reported as 55108 and the Z-score [6] is reported as -0.01199.
In the case of `C[N+]1(C)CCc2cc3c(cc2[C@H]1[C@@H]1OC(=O)c2c1ccc1c2OCO1)OCO3.[Br-]` [(-)-Bicuculline methbromide, 1(S), 9(R)], the “Raw Signal” value [4] is reported as 56332 and the Z-score [5] is reported as -0.2785.
Compound `CN1C(=O)CC[C@H]1c1cccnc1` [(-)-Cotinine] has a Z-score [3] of -0.59.
In the case of `CN[C@@H](C)[C@H](O)c1ccccc1.CN[C@@H](C)[C@H](O)c1ccccc1.O=S(=O)(O)O` [(-)-Ephedrine hemisulfate], the “Raw Signal” value [4] is reported as 54708 and the Z-score [5] is reported as -0.09323.
With `CNC[C@H](O)c1ccc(O)c(O)c1` [(-)-Epinephrine bitartrate] the “Raw Signal” value [1] was 51229 and the Z-score [3] was -0.7998.
`CN1CC[C@@]2(C)c3cc(O)ccc3N(C)[C@@H]12.O=C(O)/C=C/C(=O)O` [(-)-Eseroline fumarate] was tested, and the “Raw Signal” value [7] was 57638 and the Z-score [8] was 0.5018.
`C[C@@]12N[C@@H](Cc3ccccc31)c1ccccc12.O=C(O)/C=C\C(=O)O` [(-)-MK-801 hydrogen maleate] was tested, and the “Raw Signal” value [7] was 58481 and the Z-score [8] was 0.6868.
In the case of `COc1ccc2cc([C@H](C)C(=O)[O-])ccc2c1.[Na+]` [(-)-Naproxen sodium], the “Raw Signal” value [7] is reported as 56716 and the Z-score [8] is reported as 0.3902.
In the case of `C=C(C)[C@H]1CC=C(C(=O)O)CC1` [(-)-Perillic acid], the “Raw Signal” value [7] is reported as 58838 and the Z-score [8] is reported as 0.5467.
